Reference: paper PMC6284057, “Combined Antibacterial Effects of Goat Cathelicidins With Different Mechanisms of Action” (Frontiers in Microbiology, 2018)
≈ marks a conversion by molar mass, not a printed value. Where two headings read alike, the source gives them in different places.

How the values were obtained:
[1] = test system: in vitro translation of EGFP, E. coli BL21 Star (DE3) cell lysate; assay: Cell-free protein expression assay (EGFP); assay type: biochemical, Escherichia coli; details: EGFP fluorescence, 1.5 h, 30°C
Protocol: The cell lysate used for translation inhibition assay was prepared using the E. coli BL21 Star (DE3) cell culture grown at 30°C in the 2x YTPG liquid medium (1% yeast extract, 1.6% tryptone, 0.5% NaCl, 22 mM NaH2PO4, 40 mM Na2HPO4, 0.1 M glucose). The chromosome of DE3 strains contains a gene encoding T7 RNA polymerase under control of the lacUV5 promoter. The bacterial culture was grown to OD600 0.8–1.0, then T7 RNA polymerase gene was induced by adding 0.2 mM IPTG. Bacteria were harvested at OD600 5.0–6.0 by centrifugation (3000 g, 30 min, 4°C). The bacterial pellet was washed three times by suspending it in four volumes of wash buffer (10 mM Tris-acetate buffer, pH 8.2, 60 mM potassium glutamate, 14 mM magnesium acetate, 1 mM DTT), then resuspended in one volume of the same buffer (1 ml per 1 g of wet cell mass) and disrupted by sonication at 5–15°C. The total cell lysate was centrifuged at 15000 g (30 min, 4°C). The supernatant was split into aliquots and stored at -70°C.
In order to investigate the effect of AMPs on the translation process, the peptides were added to a cell-free protein synthesis (CFPS) reaction mix with a plasmid encoding EGFP variant (F64L, S65T, Q80R, F99S, M153T, and V163A) under a control of the T7 promoter. The reaction mix consisted of the following components: 1.2 mM ATP, 0.8 mM UTP, 0.8 mM GTP, 0.8 mM CTP, 2 mM of each of 20 proteinogenic amino acids, 1.5 mM spermidine, 1 mM putrescine dihydrochloride, 0.06647 mM calcium folinate, 170 ng/ml tRNA from the E. coli MRE 600 strain, 0.33 mM NAD, 120 mM HEPES-KOH (pH 8.0), 10 mM ammonium glutamate, 175 mM potassium glutamate, 60 mM glucose, 15 mM magnesium glutamate, 2% PEG 8000, 25% E. coli BL21 Star (DE3) cell lysate, 10 ng/μl plasmid DNA. The reaction volume was 50 μl. […] Fluorescence of the sample without inhibitor was set as the 100% value. […] Fluorescence of the synthesized EGFP was measured with the microplate reader AF2200 (λExc = 488 nm, λEm = 510 nm). […] IC50 values were determined by interpolation from non-linear regression curves using the GraphPad Prism 6.0 software.

K. pneumoniae (CI 287) = assay type: cell-based, Klebsiella pneumoniae; details: Mueller-Hinton broth, 10^6 CFU/ml, 0.1% BSA, 37°C, 24 h, median of at least 3 experiments
Protocol: (§1) Antimicrobial assay was performed as described previously ([Panteleev et al., 2017b]). Briefly, mid-log phase bacterial test cultures were diluted with the 2× Mueller-Hinton broth (MH, Sigma) supplemented with 1.8% NaCl or without it so that to reach a final cell concentration of 10^6 CFU/ml. 50 μl aliquots of the obtained bacterial suspension were added to 50 μl of the peptide solutions serially diluted with 0.1% water solution of bovine serum albumin (BSA) in 96-well flat-bottom polystyrene microplates (Eppendorf #0030730011). After incubation at 37°C and 900 rpm for 24 h the minimum inhibitory concentrations (MIC) were determined as the lowest peptide concentrations that prevented growth of a test microorganism observed as visible turbidity. The results were expressed as the median values determined on the basis of at least three independent experiments performed in triplicate.

B. subtilis B-886 = assay type: cell-based, Bacillus subtilis; details: Mueller-Hinton broth, 10^6 CFU/ml, 0.1% BSA, 37°C, 24 h, median of at least 3 experiments
Protocol: as §1

M. luteus B-1314 = assay type: cell-based, Micrococcus luteus; details: Mueller-Hinton broth, 10^6 CFU/ml, peptide diluted in 0.1% BSA, 37°C, 24 h, median of at least 3 experiments in triplicate
Protocol: as §1

S. aureus 209P = assay type: cell-based, Staphylococcus aureus; details: Mueller-Hinton broth, 10^6 CFU/ml, 0.1% BSA, 37°C, 24 h, median of at least 3 experiments
Protocol: as §1

P. aeruginosa PAO1 = assay type: cell-based, Pseudomonas aeruginosa; details: Mueller-Hinton broth, 10^6 CFU/ml, 0.1% BSA, 37°C, 24 h, median of at least 3 experiments
Protocol: as §1

[2] = test system: A. baumannii (XDR CI 2675); assay: microbe, parasite or virus in culture; assay type: cell-based, Acinetobacter baumannii; details: read-out: Minimum inhibitory concentration
Protocol: as §1

[3] = test system: all the cells tested (hRBC, HEF, HEK293T); assay: Hemolysis and cytotoxicity assay; assay type: cell-based, human; details: positive control
Protocol: Hemolytic activity of the peptides was tested against the fresh suspension of human red blood cells (hRBC) using the hemoglobin release assay as described previously ([Panteleev et al., 2016]). Three experiments were performed with the hRBC from blood samples obtained from independent donors. The obtained data were represented as average means with standard deviations. The cytotoxicity of the peptides against HEK293T (transformed human embryonic kidney cells) and HEF (human embryonic fibroblasts) cell lines was studied using the colorimetric 3-(4,5-dimethylthiazol-2-yl)-2,5-diphenyltetrazolium bromide (MTT) dye reduction assay according to ([Panteleev and Ovchinnikova, 2017]). Three independent experiments were performed for each peptide. Half maximal inhibitory concentration (IC50) values were estimated as described previously ([Kuzmin et al., 2018]).

E. coli ML-35p = assay type: cell-based, Escherichia coli; details: Mueller-Hinton broth, 10^6 CFU/ml, 0.1% BSA, 37°C, 24 h, median of at least 3 experiments
Protocol: as §1

E. coli C600 = assay type: cell-based, Escherichia coli; details: Mueller-Hinton broth, 10^6 CFU/ml, 0.1% BSA, 37°C, 24 h, median of at least 3 experiments
Protocol: as §1

E. cloacae (XDR CI 4172) = assay: microbe, parasite or virus in culture; assay type: cell-based, Enterobacter cloacae; details: Enterobacter cloacae; Table S2, XDR clinical isolate; NaCl content of medium not stated; read-out: Minimum inhibitory concentration
Protocol: as §1

E. coli (XDR CI 1057) = assay: microbe, parasite or virus in culture; assay type: cell-based, Escherichia coli; details: Escherichia coli, read-out: Minimum inhibitory concentration
Protocol: as §1

[4] = test system: P. mirabilis (XDR CI 3423); assay: microbe, parasite or virus in culture; assay type: cell-based, Proteus mirabilis; details: Proteus mirabilis; Table S2, XDR clinical isolate; NaCl content of medium not stated; read-out: Minimum inhibitory concentration
Protocol: as §1

[5] = test system: K. pneumoniae (XDR CI 1056); assay: microbe, parasite or virus in culture; assay type: cell-based, Klebsiella pneumoniae; details: Klebsiella pneumoniae; Table S2, XDR clinical isolate; NaCl content of medium not stated; read-out: Minimum inhibitory concentration
Protocol: as §1

[6] = test system: P. aeruginosa (XDR CI 1049); assay: microbe, parasite or virus in culture; assay type: cell-based, Pseudomonas aeruginosa; details: Pseudomonas aeruginosa; Table S2, XDR clinical isolate; NaCl content of medium not stated; read-out: Minimum inhibitory concentration
Protocol: as §1

`[H]/N=C(/N)N[C@H]1[C@H](O)[C@@H](O)[C@H](O[C@@H]2O[C@@H](C)[C@](O)(C=O)[C@H]2O[C@@H]2O[C@@H](CO)[C@H](O)[C@@H](O)[C@@H]2NC)[C@@H](N/C(N)=N\[H])[C@@H]1O` [streptomycin] was tested, and the “concentration of full inhibition of in vitro protein synthesis” value [1] was greater than 1 µM and the IC50 ([1]; at least 3 independent experiments, read-out: IC50, inhibition of in vitro protein synthesis) was 0.2 µM.
With KWCFRVCYRGICYRRCR [Tachyplesin-1] the “inhibition of protein biosynthesis, in words” value [1] was “comparable level of inhibition”.
With `CC[C@H](C)[C@H](NC(=O)CN)C(=O)NCC(=O)N[C@@H](C)C(=O)N[C@H](C(=O)N[C@@H](CC(C)C)C(=O)N[C@@H](CCCCN)C(=O)N[C@H](C(=O)N[C@@H](CC(C)C)C(=O)N[C@H](C(=O)N[C@H](C(=O)NCC(=O)N[C@@H](CC(C)C)C(=O)N1CCC[C@H]1C(=O)N[C@@H](C)C(=O)N[C@@H](CC(C)C)C(=O)N[C@H](C(=O)N[C@@H](CO)C(=O)N[C@@H](Cc1c[nH]c2ccccc12)C(=O)N[C@H](C(=O)N[C@@H](CCCCN)C(=O)N[C@@H](CCCNC(=N)N)C(=O)N[C@@H](CCCCN)C(=O)N[C@@H](CCCNC(=N)N)C(=O)N[C@@H](CCC(N)=O)C(=O)N[C@@H](CCC(N)=O)C(N)=O)[C@@H](C)CC)[C@@H](C)CC)[C@@H](C)O)[C@@H](C)O)C(C)C)C(C)C` [Melittin, reference compound] the Minimum inhibitory concentration (K. pneumoniae (CI 287); 0.9% NaCl) was 16 µM (≈ 45.5 µg/mL), the Minimum inhibitory concentration (K. pneumoniae (CI 287); Without NaCl) was 4 µM (≈ 11.4 µg/mL) and the Minimum inhibitory concentration (B. subtilis B-886; 0.9% NaCl) was 0.5 µM (≈ 1.42 µg/mL). For the same molecule, the Minimum inhibitory concentration (B. subtilis B-886; Without NaCl) was 0.5 µM (≈ 1.42 µg/mL), the Minimum inhibitory concentration (M. luteus B-1314; 0.9% NaCl) was 0.5 µM (≈ 1.42 µg/mL) and the Minimum inhibitory concentration (M. luteus B-1314; Without NaCl) was 0.25 µM (≈ 0.712 µg/mL). For the same molecule, the Minimum inhibitory concentration (S. aureus 209P; 0.9% NaCl) was 16 µM (≈ 45.5 µg/mL), the Minimum inhibitory concentration (S. aureus 209P; Without NaCl) was 2 µM (≈ 5.69 µg/mL) and the Minimum inhibitory concentration (P. aeruginosa PAO1; 0.9% NaCl) was 8 µM (≈ 22.8 µg/mL). For the same molecule, the Minimum inhibitory concentration (P. aeruginosa PAO1; Without NaCl) was 4 µM (≈ 11.4 µg/mL), the MIC ([2]; 0.9% NaCl, Mueller-Hinton broth, 10^6 CFU/ml, 0.1% BSA, 37°C, 24 h, median of at least 3 experiments) was 8 µM (≈ 22.8 µg/mL) and the MIC ([2]; Without NaCl, Mueller-Hinton broth, 10^6 CFU/ml, 0.1% BSA, 37°C, 24 h, median of at least 3 experiments) was 2 µM (≈ 5.69 µg/mL). The “concentrations that completely damaged all the cells tested” value [3] was less than 2.5 µM, the Minimum inhibitory concentration (E. coli ML-35p; 0.9% NaCl) was 8 µM (≈ 22.8 µg/mL) and the Minimum inhibitory concentration (E. coli ML-35p; Without NaCl) was 2 µM (≈ 5.69 µg/mL). It also gave a Minimum inhibitory concentration (E. coli C600; 0.9% NaCl) of 8 µM (≈ 22.8 µg/mL) and a Minimum inhibitory concentration (E. coli C600; Without NaCl) of 4 µM (≈ 11.4 µg/mL).
With `C[C@@H](O)[C@H]1C(=O)N2C(C(=O)O)=C(S[C@@H]3CN[C@H](C(=O)N(C)C)C3)[C@H](C)[C@H]12` [Meropenem, reference compound] the MIC (E. cloacae (XDR CI 4172)) was 0.5 µM (≈ 0.192 µg/mL), the MIC (E. coli (XDR CI 1057)) was 0.125 µM (≈ 0.0479 µg/mL) and the MIC [4] was greater than 128 µM. The MIC ([2]; Acinetobacter baumannii, Table S2, XDR clinical isolate, NaCl content of medium not stated) was 0.5 µM (≈ 0.192 µg/mL), the MIC [5] was 16 µM (≈ 6.14 µg/mL) and the MIC [6] was 64 µM (≈ 24.5 µg/mL).
